The data set in a line: gradient 5% acetonitrile 3 min, to 50% in 2 min, to 85% in 15 min, held 3 min, 100 µL/min. As to conditions: column: Zorbax Extend-C18 2.1 x 50 mm; eluents: water / acetonitrile, 0.1% formic acid. The procedure, abridged: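 Values are retention times taken from adduct peaks that software picked and an analyst inspected. The pure standards were run as mixtures of ~100 molecules on HPLC linked to a quadrupole time-of-flight mass spectrometer, in positive and negative ionization mode. A Zorbax Extend-C18 column (2.1 × 50 mm, 1.8 μm) was used at 100 μL/min with water and acetonitrile, each including 0.1% formic acid.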
Molecule `C[C@H]1CN(S(=O)(=O)c2ccccc2)C[C@@H]1c1nc(-c2ccncc2)no1` displayed an RP-LC retention time of 871 s.
Consider `C=CCN1C(=O)C2(c3cc(Br)ccc31)c1[nH]c3ccccc3c1CCN2C(C)=O` (stereo not drawn), for which the RP-LC retention time turned out to be 929 s.
The result for `O=C(CN1C(=O)C2CCCCN2c2ccc(C(=O)N3CCCC3)cc21)NCc1ccc(F)cc1Cl` (stereo not drawn) reads 863 s; that for `CC1=C(c2ccc(C)cc2)S(=O)(=O)N=C1N1CCCN(C(=O)c2ccccc2)CC1`, 837 s; that for `O=C(NCc1cc(-c2ccc3c(c2)OCCO3)on1)c1ccc2nsnc2c1`, 788 s.
In turn, `CC(=O)N1CCC(C(=O)Nc2ccc(OCc3nnc(-c4ccc(Cl)cc4)o3)cc2)CC1` displayed an RP-LC retention time of 758 s.
`COc1cc(OC)cc(-c2nnc(Cc3nc(-c4ccccc4)no3)o2)c1` showed an RP-LC retention time of 1020 s.
As to `COc1cccc(-n2c(=O)c3sccc3n(Cc3nc(-c4ccc(C)c(C)c4)no3)c2=O)c1`, the RP-LC retention time is 1160 s.
`COc1ccc(NC(=O)Nc2cccc(-c3ccc(N4CCOCC4)nn3)c2)cc1F` came in with an RP-LC retention time of 675 s.
In turn, `CCOc1ccc(CNC(=O)C2CCCN(c3nccnc3Sc3ccccc3)C2)cc1OCC` (stereo not drawn) had an RP-LC retention time of 1030 s.
The molecule `CCOC(=O)CCc1c(C)nn(-c2cc(N3CCOCC3)ncn2)c1C` yielded an RP-LC retention time of 863 s.
The result for `COc1ccc(Cc2nn3c(CSc4ccccc4)nnc3s2)cc1` reads 937 s.
In turn, `Nc1cc(C2CCN(C(=O)Nc3cc(F)c(F)c(F)c3)CC2)no1` registered an RP-LC retention time of 765 s.
Regarding `COCCn1cc2c3c(cccc31)CN(C(=O)Nc1cc(F)cc(F)c1)CC2`, the RP-LC retention time stood at 963 s.
The figure for `CN1C(=O)c2cc(S(=O)(=O)Nc3ccc(F)cc3Cl)ccc2Oc2cccnc21` is 943 s; for `Cc1cc(Cl)ccc1NC(=O)C1CCN(C(=O)c2ncn3c2COC(c2ccc(F)cc2)C3)CC1` (stereo not drawn) it is 871 s; for `O=C(NC1CC1)c1cn(-c2ncccc2-c2nc(-c3ccccc3)no2)cn1` it is 762 s.
`CCOCCCNC(=O)c1cc2n(n1)CCCN(Cc1cccc(C)c1)C2=O` returned an RP-LC retention time of 780 s.
The figure for `CC1CCCN(c2ccn3c(=O)n(CC(=O)NCc4ccc(F)cc4F)nc3n2)C1` (stereo not drawn) is 772 s; for `O=C(NCCc1ccc(Cl)cc1)C1CCCN(c2ncnc3c2nc2n3CCCCC2)C1` (stereo not drawn) it is 838 s.
`CCOC(=O)c1ccc(NC(=O)Cc2csc3nc(-c4ccc(C)c(C)c4)cn23)cc1` returned an RP-LC retention time of 922 s.
For `CS(=O)(=O)N1C[C@H]2CCN(Cc3ccc(F)cc3Cl)C[C@H]21`, the RP-LC retention time turned out to be 597 s.
The result for `Cc1ccc(Sc2ccc(N3CCCC(C(=O)NCc4ccccc4)C3)nn2)cc1` (stereo not drawn) reads 905 s; that for `COCc1ccc(C(=O)Nc2nnc(C)s2)o1`, 595 s; that for `N#Cc1ccc(-c2nc(-c3ccc4c(c3)ncn4CCN3CCCC3)no2)cc1`, 638 s.
`Cc1ccc(-n2c(=O)n(CC(=O)Nc3ccc(C)cc3C)c3cccnc32)cc1` returned an RP-LC retention time of 907 s.
In turn, `O=C(NCCc1ccsc1)c1ccc(Cl)c(Cl)c1` registered an RP-LC retention time of 933 s.
`CCCC(=O)N1CCN(c2nc(CN3CCOCC3)cs2)CC1` came in with an RP-LC retention time of 580 s.
`CC(C)CCNC(=O)c1nn(-c2ccc(F)cc2)nc1CO` registered an RP-LC retention time of 984 s.
As for `O=C(Cn1nc2c(N3CCCCCC3)nccn2c1=O)Nc1ccc2c(c1)OCCO2`, the RP-LC retention time came to 668 s.
In the case of `COc1ccc(-c2ncc3c(=O)n(CC(=O)N4CCCC4)c(=O)n(C)c3n2)cc1`, the RP-LC retention time amounted to 815 s.
As for `CCSc1nc2ccc(NS(=O)(=O)c3cc(C)ccc3C)cc2s1`, the RP-LC retention time was 1070 s.
As for `CCOC(=O)c1[nH]c(C)c(CCC(=O)N2CCC(C(=O)NC(C)CC)CC2)c1C` (stereo not drawn), the RP-LC retention time came out at 723 s.
Molecule `COc1ccc(-c2cc3n(n2)CCCN(S(=O)(=O)c2ccc(C(C)=O)cc2)C3)cc1` came in with an RP-LC retention time of 882 s.
`CC1=C(c2ccc(C)cc2)S(=O)(=O)N=C1N1CCCN(C(=O)c2ccccc2C)CC1` gave an RP-LC retention time of 898 s.
`Cc1oc(-c2ccc(C(=O)NCCCN3CCCC3)cc2)nc1COc1ccccc1` displayed an RP-LC retention time of 715 s.
The molecule `COCc1c(C(=O)O)nnn1Cc1ccccc1C` yielded an RP-LC retention time of 714 s.
The result for `CC(C)NC(=O)C1=CCN(C(=O)c2ccc(F)cc2)CC1` reads 714 s; that for `COc1ccc(CNC(=O)N2C[C@H](c3nc(-c4ccncc4)no3)[C@@H](C)C2)cc1`, 732 s; that for `CCc1ccc(CNC(=O)C2CCCN(c3nc4c(s3)c(C)nn4-c3ccc(Cl)cc3)C2)cc1` (stereo not drawn), 1380 s.
The figure for `Cn1cccc1C(CNS(=O)(=O)c1ccc(F)c(Cl)c1)N1CCOCC1` (stereo not drawn) is 575 s; for `COc1ccc(CC(=O)N(C)CC2(C)CCOCC2)cc1Cl` it is 818 s.
`COc1ccc(S(=O)(=O)Nc2ccc(-c3cn4ccc(C)nc4n3)cc2)cc1OC` returned an RP-LC retention time of 627 s.
Consider `CCc1ccc(NC(=O)Cn2c(N3CCOCC3)nc(CC)cc2=O)cc1`, for which the RP-LC retention time worked out at 747 s.
In turn, `COc1ccc(Br)cc1CNC(=O)Cn1cnc2onc(C)c2c1=O` returned an RP-LC retention time of 815 s.
`COc1ccc(N(C)c2nnc(-c3ccc(NC(=O)c4ccco4)cc3)s2)cc1` showed an RP-LC retention time of 712 s.
`CCCN(C)C[C@@H]1CC(F)(F)CN1C1CCN(S(=O)(=O)c2ccc(C)cc2C)CC1` had an RP-LC retention time of 788 s.
Molecule `CCOC(=O)c1c(C)n(-c2ccc(N(C)C)cc2)c2ccc(OCC(N)=O)cc12` gave an RP-LC retention time of 938 s.
`CCCCCn1c(=O)c2ccccc2n(Cc2nc(-c3ccccc3OC)no2)c1=O`: the RP-LC retention time came to 1130 s.
For the molecule `Cc1ccc(C)c(CNC(=O)c2cc3c(=O)n(C)c4ccccc4n3n2)c1`, the RP-LC retention time stood at 966 s.
Molecule `COc1ccc(-c2nc3cnccn3c2Nc2ccc(C(=O)N3CCOCC3)cc2)cc1OC` came in with an RP-LC retention time of 609 s.
Molecule `COc1cccc(NC(=O)CSc2cc(N3CCN(c4ccccc4F)CC3)ncn2)c1` gave an RP-LC retention time of 1060 s.
With `CCn1cc2c3c(cccc31)CN(C(=O)Nc1cc(OC)c(OC)c(OC)c1)CC2`, the RP-LC retention time came to 742 s.
As to `O=S(=O)(c1ccc(F)c(Cl)c1)N1CCc2nc[nH]c2C1`, the RP-LC retention time came to 632 s.
The molecule `O=C(COc1ccc(-c2nnc3n2CCCC3)cc1)Nc1ccc(Br)cc1` displayed an RP-LC retention time of 734 s.
On to `CCN1CCN(C(=O)c2cn(-c3ccc(NC(=O)CC(C)C)cn3)cn2)CC1`, for which the RP-LC retention time stood at 589 s.
In turn, `Cc1nc(-c2ccc(N3CCN(C(=O)c4ccoc4)CC3)nc2)sc1C` showed an RP-LC retention time of 738 s.
In the case of `CN(Cc1ccccc1)C(=O)CSc1nnc(-c2ccc(Cl)cc2)o1`, the RP-LC retention time stood at 1030 s.
The figure for `COc1ccc(CNC(=O)Cn2nc3c4sc(N(C)C)nc4ncn3c2=O)cc1` is 668 s.
The figure for `CCN(CC)CCNC(=O)Cc1cc(-c2ccc(F)cc2F)on1` is 556 s; for `Cc1oc2ccn(Cc3cccc(F)c3)c(=O)c2c1C(=O)NCc1cc(F)cc(F)c1` it is 1130 s; for `COc1ccc(NC(=O)c2nc(C3CCC3)oc2C)cc1C(F)(F)F` it is 1170 s.
The figure for `O=C(NCc1cccs1)C1CCCN(C(=O)c2cc(-c3ccncc3)n[nH]2)C1` (stereo not drawn) is 574 s; for `CCc1nn2c(CNC(=O)C3CCC3)c(-c3ccccc3)nc2s1` it is 804 s.
The molecule `CSc1ccccc1C(=O)NCc1cc(-c2cccs2)on1` gave an RP-LC retention time of 796 s.
As for `CCc1noc(-c2cnc3nc(C)ccc3c2Nc2ccc3c(c2)OCO3)n1`, the RP-LC retention time turned out to be 720 s.
`O=C(COc1ccc(F)cc1)N1[C@H]2CC[C@@H]1c1cnc(-c3ccc(F)cc3)nc1C2`: the RP-LC retention time was found to be 760 s.
With `COc1ccc(NC(=O)Cn2c(C(C)C)nc3c(c2=O)CN(Cc2ccccc2)CC3)cc1`, the RP-LC retention time was 685 s.
`COC(=O)[C@H]1[C@H]2C[C@@H]3c4[nH]c5cc(OC)ccc5c4CCN3C[C@H]2C[C@@H](OC(=O)CC(C)=O)[C@@H]1OC` gave an RP-LC retention time of 731 s.
`CC(C)c1ccc(-c2nc3ncccn3c2NCc2ccccc2)cc1` came in with an RP-LC retention time of 859 s.
Molecule `CCN1C(=O)C2(CCN(C(=O)c3ccnn3CC)CC2)c2ccccc21` displayed an RP-LC retention time of 789 s.
Consider `COc1ccccc1-c1csc(NC(=O)c2sc(-c3ccccc3)nc2C)n1`, for which the RP-LC retention time came out at 1250 s.
Molecule `O=C(C1CCN(c2nc3ccc(-c4cncnc4)nc3s2)CC1)N1CCCCC1` registered an RP-LC retention time of 787 s.
`COCc1nncn1C1CCN(S(=O)(=O)c2cc(F)ccc2OC)CC1` had an RP-LC retention time of 679 s.
`Cc1cc(C(=O)NCc2cccnc2)c2cc(Br)ccc2n1` returned an RP-LC retention time of 588 s.
Regarding `O=c1ccc(-c2ccc(F)cc2)nn1CCc1nc(-c2ccc(Br)cc2)no1`, the RP-LC retention time was found to be 1110 s.
Molecule `CN(C)c1ncccc1NC(=O)c1cccc(C#N)c1` had an RP-LC retention time of 585 s.
Molecule `CC(=O)Nc1ccc(-c2noc(C3CCN(C(=O)CCc4c[nH]c5ccccc45)CC3)n2)cc1` yielded an RP-LC retention time of 786 s.

Source of the values: the METLIN SMRT retention time set (Domingo-Almenara et al. 2019).
